In PubChem BioAssay (NCI):
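Where inhibition never reached the appropriate level, the endpoint shown equals the highest concentration tested. Otherwise, values were interpolated linearly from a five-concentration, 48-hour dose response in 96-well plates. Here, GI50 denotes the concentration required for 50% inhibition of growth. TGI: concentration producing complete growth inhibition.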

Legend:
Test in all cases: NCI anticancer screen, dose series, 48 h
[1] = tested on: IGROV1 ovarian
[2] = tested on: MOLT-4 leukemia
[3] = tested on: SNB-75 CNS
[4] = tested on: NCI/ADR-RES ovarian
[5] = tested on: HCC-2998 colon
[6] = tested on: MALME-3M melanoma
[7] = tested on: SNB-19 CNS
[8] = tested on: HL-60(TB) leukemia
[9] = tested on: MDA-MB-231 breast
[10] = tested on: UO-31 renal
[11] = tested on: KM12 colon
[12] = tested on: HS 578T breast
[13] = tested on: OVCAR-8 ovarian
[14] = tested on: OVCAR-4 ovarian
[15] = tested on: LOX IMVI melanoma
[16] = tested on: RPMI-8226 leukemia
[17] = tested on: CCRF-CEM leukemia
[18] = tested on: UACC-62 melanoma
[19] = tested on: SF-539 CNS
[20] = tested on: SN12C renal
[21] = tested on: SK-MEL-28 melanoma
[22] = tested on: HOP-62 NSCLC
[23] = tested on: PC-3 prostate
[24] = tested on: OVCAR-3 ovarian
[25] = tested on: TK-10 renal
[26] = tested on: COLO 205 colon
[27] = tested on: CAKI-1 renal
[28] = tested on: RXF 393 renal
[29] = tested on: M14 melanoma
[30] = tested on: NCI-H522 lung
[31] = tested on: MDA-MB-435
[32] = tested on: SR leukemia
[33] = tested on: SK-OV-3 ovarian
[34] = tested on: MCF7 breast
[35] = tested on: A549 NSCLC
[36] = tested on: NCI-H460 lung
[37] = tested on: U251 CNS
[38] = tested on: SF-295 CNS
[39] = tested on: ACHN renal
[40] = tested on: HOP-92 NSCLC
[41] = tested on: NCI-H226 lung
[42] = tested on: HT29 colon
[43] = tested on: SK-MEL-2 melanoma
[44] = tested on: HCT-15 colon
[45] = tested on: UACC-257 melanoma
[46] = tested on: 786-0 renal
[47] = tested on: SF-268 CNS
[48] = tested on: MDA-N
[49] = tested on: EKVX NSCLC
[50] = tested on: NCI-H23 lung
[51] = tested on: HCT-116 colon
[52] = tested on: K-562 leukemia
[53] = tested on: SW-620 colon
[54] = tested on: SK-MEL-5 melanoma
[55] = tested on: T-47D breast
[56] = tested on: DU-145 prostate
[57] = tested on: A498 renal
[58] = tested on: BT-549 breast
[59] = tested on: OVCAR-5 ovarian

OC(c1cc(C(O)(C(F)(F)F)C(F)(F)F)ncn1)(C(F)(F)F)C(F)(F)F
TGI [1]: > 10 µM
TGI [2]: > 10 µM
TGI [3]: > 10 µM
TGI [4]: > 10 µM
TGI [5]: > 10 µM
TGI [6]: > 10 µM
TGI [7]: > 10 µM
TGI [8]: > 10 µM
TGI [9]: > 10 µM
TGI [10]: > 10 µM
TGI [11]: > 10 µM
TGI [12]: > 10 µM
TGI [13]: > 10 µM
TGI [14]: > 10 µM
TGI [15]: > 10 µM
TGI [16]: > 10 µM
TGI [17]: > 10 µM
TGI [18]: > 10 µM
TGI [19]: > 10 µM
TGI [20]: > 10 µM
TGI [21]: > 10 µM
TGI [22]: > 10 µM
TGI [23]: > 10 µM
TGI [24]: > 10 µM
TGI [25]: > 10 µM
TGI [26]: > 10 µM
TGI [27]: > 10 µM
TGI [28]: > 10 µM
TGI [29]: > 10 µM
TGI [30]: > 10 µM
TGI [31]: > 10 µM
TGI [32]: > 10 µM
TGI [33]: > 10 µM
TGI [34]: > 10 µM
TGI [35]: > 10 µM
TGI [36]: > 10 µM
TGI [37]: > 10 µM
TGI [38]: > 10 µM
TGI [39]: > 10 µM
TGI [40]: > 10 µM
TGI [41]: > 10 µM
TGI [42]: > 10 µM
TGI [43]: > 10 µM
TGI [44]: > 10 µM
TGI [45]: > 10 µM
TGI [46]: > 10 µM
TGI [47]: > 10 µM
TGI [48]: > 10 µM
TGI [49]: > 10 µM
TGI [50]: > 10 µM
TGI [51]: > 10 µM
TGI [52]: > 10 µM
TGI [53]: > 10 µM
TGI [54]: > 10 µM
TGI [55]: > 10 µM
TGI [56]: > 10 µM
TGI [57]: > 10 µM

COc1cc2cc(c1Cl)N(C)C(=O)CC(OC(=O)C(C)C)C1(C)OC1C(C)C1CC(O)(NC(=O)O1)C(OC)/C=C/C=C(C)C2 (configuration not stated)
TGI [6]: 25.1 µM
TGI [10]: 18.9 µM
TGI [14]: 40.8 µM
TGI [16]: 12.9 µM
TGI [20]: 46.7 µM
GI50 [21]: 17.6 µM
TGI [22]: 62 µM
TGI [58]: 82.9 µM
TGI [25]: 36.4 µM
TGI [27]: 19.1 µM
TGI [33]: 53.4 µM
TGI [35]: 33.1 µM
TGI [59]: 38.6 µM
GI50 [39]: 0.0126 µM
TGI [45]: 23.8 µM
TGI [46]: 30.6 µM
TGI [47]: 15.4 µM
TGI [48]: 1.41 µM
TGI [49]: 16.6 µM
TGI [50]: 48.5 µM
TGI [51]: 13.8 µM
GI50 [55]: 29.1 µM
TGI [57]: 36.7 µM

O=C(ON=c1c2ccccc2ccc2ccccc12)c1cc([N+](=O)[O-])cc([N+](=O)[O-])c1
TGI [1]: > 100 µM
TGI [2]: > 100 µM
TGI [3]: > 100 µM
TGI [4]: > 100 µM
TGI [5]: > 100 µM
TGI [6]: 77.4 µM
TGI [7]: > 100 µM
TGI [8]: > 100 µM
TGI [9]: > 100 µM
TGI [10]: > 100 µM
TGI [11]: > 100 µM
TGI [12]: > 100 µM
TGI [13]: > 100 µM
TGI [14]: > 100 µM
TGI [15]: > 100 µM
TGI [16]: > 100 µM
TGI [17]: 94 µM
TGI [18]: > 100 µM
TGI [19]: > 100 µM
TGI [20]: > 100 µM
TGI [21]: > 100 µM
TGI [22]: > 100 µM
TGI [23]: > 100 µM
TGI [58]: > 100 µM
TGI [24]: > 100 µM
TGI [25]: > 100 µM
TGI [26]: > 100 µM
TGI [28]: > 100 µM
TGI [29]: > 100 µM
TGI [31]: > 100 µM
TGI [32]: > 100 µM
TGI [33]: > 100 µM
TGI [34]: > 100 µM
TGI [35]: > 100 µM
TGI [36]: > 100 µM
TGI [37]: > 100 µM
TGI [59]: > 100 µM
TGI [38]: > 100 µM
TGI [39]: > 100 µM
TGI [40]: > 100 µM
TGI [41]: > 100 µM
TGI [42]: > 100 µM
TGI [43]: > 100 µM
TGI [44]: > 100 µM
TGI [45]: > 100 µM
TGI [46]: > 100 µM
TGI [47]: > 100 µM
TGI [48]: > 100 µM
TGI [49]: > 100 µM
TGI [50]: > 100 µM
TGI [51]: > 100 µM
TGI [52]: > 100 µM
TGI [53]: > 100 µM
TGI [54]: > 100 µM
TGI [56]: > 100 µM

COc1ccc2nc(-c3ccc(OC(=O)N(C)C)cc3)cn2c1
TGI [1]: > 100 µM
TGI [2]: > 100 µM
TGI [3]: > 100 µM
TGI [4]: > 100 µM
TGI [5]: > 100 µM
TGI [6]: > 100 µM
TGI [7]: > 100 µM
TGI [8]: > 100 µM
TGI [9]: > 100 µM
TGI [11]: > 100 µM
TGI [12]: > 100 µM
TGI [13]: > 100 µM
TGI [14]: > 100 µM
TGI [15]: > 100 µM
TGI [17]: > 100 µM
TGI [18]: > 100 µM
TGI [20]: > 100 µM
TGI [21]: > 100 µM
TGI [22]: > 100 µM
TGI [23]: > 100 µM
TGI [24]: > 100 µM
TGI [25]: > 100 µM
TGI [26]: > 100 µM
TGI [27]: > 100 µM
TGI [29]: > 100 µM
TGI [30]: > 100 µM
TGI [31]: > 100 µM
TGI [32]: > 100 µM
TGI [33]: > 100 µM
TGI [34]: > 100 µM
TGI [35]: > 100 µM
TGI [36]: > 100 µM
TGI [37]: > 100 µM
TGI [59]: > 100 µM
TGI [38]: > 100 µM
TGI [39]: > 100 µM
TGI [40]: > 100 µM
TGI [41]: > 100 µM
TGI [42]: > 100 µM
TGI [43]: > 100 µM
TGI [45]: > 100 µM
TGI [46]: > 100 µM
TGI [47]: > 100 µM
TGI [48]: > 100 µM
TGI [49]: > 100 µM
TGI [50]: > 100 µM
TGI [51]: > 100 µM
TGI [52]: > 100 µM
TGI [53]: > 100 µM
TGI [54]: > 100 µM
TGI [55]: > 100 µM
TGI [57]: > 100 µM
